# Results taken from US7772183B2 (Bristol-Myers Squibb Company, priority 2005, dated 2010).
# pEC50, pIC50: −log10 of the molar value.
# Key:
# [1] = biological target: T1, HCV NS3/4A protease complex, BMS strain (UniProt P27958, species not given/STRAIN_BMS); experiment: FRET peptide assay to monitor HCV NS3/4A proteolytic activity (BMS strain); assay type: biochemical, Hepatitis C virus (genotype 1a); settings: NS3/4A BMS strain; read-out: IC50 Range
# T1 construct: said of H77 and J4L6S; fused on or other part: A three-lysine solubilising tail at the C-terminus of NS4A and a His tag (pET21b, Ni-NTA purification)
# Source text: HCV NS3 protease complexes, derived from the BMS strain, H77 strain or J4L6S strain, were generated, as described below. These purified recombinant proteins were generated for use in a homogeneous assay (see below) to provide an indication of how effective compounds of the present disclosure would be in inhibiting HCV NS3 proteolytic activity.
# Serum from an HCV-infected patient was obtained from Dr. T. Wright, San Francisco Hospital. An engineered full-length cDNA (compliment deoxyribonucleic acid) template of the HCV genome (BMS strain) was constructed from DNA fragments obtained by reverse transcription-PCR (RT-PCR) of serum RNA (ribonucleic acid) and using primers selected on the basis of homology between other genotype 1a strains. From the determination of the entire genome sequence, a genotype 1a was assigned to the HCV isolate according to the classification of Simmonds et al. (See P Simmonds, K A Rose, S Graham, S W Chan, F McOmish, B C Dow, E A Follett, P L Yap and H Marsden, J. Clin. Microbiol., 31(6), 1493-1503 (1993)). […] The infectious clones, H77 (1a genotype) and J4L6S (1b genotype) were obtained from R. Purcell (NIH) and the sequences are published in Genbank (AAB67036, see Yanagi, M., Purcell, R. H., Emerson, S. U. and Bukh, J. Proc. Natl. Acad. Sci. U.S.A. 94(16), 8738-8743 (1997); AF054247, see Yanagi, M., St Claire, M., Shapiro, M., Emerson, S. U., Purcell, R. H. and Bukh, J, Virology 244 (1), 161-172. (1998)).
# The H77 and J4L6S strains were used for production of recombinant NS3/4A protease complexes. DNA encoding the recombinant HCV NS3/4A protease complex (amino acids 1027 to 1711) for these strains were manipulated as described by P. Gallinari et al. (see Gallinari P, Paolini C, Brennan D, Nardi C, Steinkuhler C, De Francesco R. Biochemistry. 38(17):5620-32, (1999)). Briefly, a three-lysine solubilizing tail was added at the 3′-end of the NS4A coding region. The cysteine in the P1 position of the NS4A-NS4B cleavage site (amino acid 1711) was changed to a glycine to avoid the proteolytic cleavage of the lysine tag. Furthermore, a cysteine to serine mutation was introduced by PCR at amino acid position 1454 to prevent the autolytic cleavage in the NS3 helicase domain. The variant DNA fragment was cloned in the pET21b bacterial expression vector (Novagen) and the NS3/4A complex was expressed in Escherichia coli strain BL21 (DE3) (Invitrogen) following the protocol described by P. Gallinari et al. (see Gallinari P, Brennan D, Nardi C, Brunetti M, Tomei L, Steinkuhler C, De Francesco R., J Virol. 72(8):6758-69 (1998)) with modifications. Briefly, the NS3/4A protease complex expression was induced with 0.5 mM Isopropyl β-D-1-thiogalactopyranoside (IPTG) for 22 hours (h) at 20° C. A typical fermentation (1 Liter (L)) yielded approximately 10 grams (g) of wet cell paste. The cells were resuspended in lysis buffer (10 mL/g) consisting of 25 mM N-(2-Hydroxyethyl)Piperazine-N′-(2-Ethane Sulfonic acid) (HEPES), pH 7.5, 20% glycerol, 500 mM Sodium Chloride (NaCl), 0.5% Triton X-100, 1 microgram/milliliter (“μg/mL”) lysozyme, 5 mM Magnesium Chloride (MgCl2), 1 μg/ml Dnasel, 5 mM β-Mercaptoethanol (βME), Protease inhibitor-Ethylenediamine Tetraacetic acid (EDTA) free (Roche), homogenized and incubated for 20 minutes (min) at 4° C. The homogenate was sonicated and clarified by ultra-centrifugation at 235000 g for 1 h at 4° C. Imidazole was added to the supernatant to a final concentration of 15 mM and the pH adjusted to 8.0. The crude protein extract was loaded on a Nickel-Nitrilotriacetic acid (Ni-NTA) column pre-equilibrated with buffer B (25 mM HEPES, pH 8.0, 20% glycerol, 500 mM NaCl, 0.5% Triton X-100, 15 mM imidazole, 5 mM βME). The sample was loaded at a flow rate of 1 mL/min. The column was washed with 15 column volumes of buffer C (same as buffer B except with 0.2% Triton X-100). The protein was eluted with 5 column volumes of buffer D (same as buffer C except with 200 mM Imidazole). […]
# [2] = test system: HCV replicon in HUH-7 cells; experiment: HCV replicon FRET assay; assay type: cell-based, Hepatitis C virus (strain 1b); settings: Hepatitis C virus, Huh-7; HCV replicon, for compounds tested; read-out: EC50 Range
# Source text: An HCV replicon whole cell system was established as described by Lohmann V, Komer F, Koch J, Herian U, Theilmann L, Bartenschlager R., Science 285(5424):110-3 (1999). This system enabled us to evaluate the effects of our HCV Protease compounds on HCV RNA replication. Briefly, using the HCV strain 1b sequence described in the Lohmann paper (Assession number: AJ238799), an HCV cDNA was synthesized by Operon Technologies, Inc. (Alameda, Calif.), and the full-length replicon was then assembled in plasmid pGem9zf(+) (Promega, Madison, Wis.) using standard molecular biology techniques. The replicon consists of (i) the HCV 5′ UTR fused to the first 12 amino acids of the capsid protein, (ii) the neomycin phosphotransferase gene (neo), (iii) the IRES from encephalomyocarditis virus (EMCV), and (iv) HCV NS3 to NS5B genes and the HCV 3′ UTR. Plasmid DNAs were linearized with Scal and RNA transcripts were synthesized in vitro using the T7 MegaScript transcription kit (Ambion, Austin, Tex.) according to manufacturer's directions. In vitro transcripts of the cDNA were transfected into the human hepatoma cell line, HUH-7. […] Resulting cell lines were characterized for positive and negative strand RNA production and protein production over time.
# The HCV replicon FRET assay was developed to monitor the inhibitory effects of compounds described in the disclosure on HCV viral replication. HUH-7 cells, constitutively expressing the HCV replicon, were grown in Dulbecco's Modified Eagle Media (DMEM) (Gibco-BRL) containing 10% Fetal calf serum (FCS) (Sigma) and 1 mg/ml G418 (Gibco-BRL). Cells were seeded the night before (1.5×10^4 cells/well) in 96-well tissue-culture sterile plates. Compound and no compound controls were prepared in DMEM containing 4% FCS, 1:100 Penicillin/Streptomysin (Gibco-BRL), 1:100 L-glutamine and 5% DMSO in the dilution plate (0.5% DMSO final concentration in the assay). Compound/DMSO mixes were added to the cells and incubated for 4 days at 37° C. After 4 days, cells were first assessed for cytotoxicity using alamar Blue (Trek Diagnotstic Systems) for a CC50 reading. The toxicity of compound (CC50) was determined by adding 1/10th volume of alamar Blue to the media incubating the cells. After 4 hours, the fluorescence signal from each well was read, with an excitation wavelength at 530 nm and an emission wavelength of 580 nm, using the Cytofluor Series 4000 (Perspective Biosystems). Plates were then rinsed thoroughly with Phosphate-Buffered Saline (PBS) (3 times 150 μl). The cells were lysed with 25 μl of a lysis assay reagent containing an HCV protease substrate (5× cell Luciferase cell culture lysis reagent (Promega #E153A) diluted to 1× with distilled water, NaCl added to 150 mM final, the FRET peptide substrate (as described for the enzyme assay above) diluted to 10 μM final from a 2 mM stock in 100% DMSO. […]. The plate was then placed into the Cytofluor 4000 instrument which had been set to 340 nm excitation/490 nm emission, automatic mode for 21 cycles and the plate read in a kinetic mode. EC50 determinations were carried out as described for the IC50 determinations.
# T1 sequence (P27958 1027-1657, change not shown, one chain of several): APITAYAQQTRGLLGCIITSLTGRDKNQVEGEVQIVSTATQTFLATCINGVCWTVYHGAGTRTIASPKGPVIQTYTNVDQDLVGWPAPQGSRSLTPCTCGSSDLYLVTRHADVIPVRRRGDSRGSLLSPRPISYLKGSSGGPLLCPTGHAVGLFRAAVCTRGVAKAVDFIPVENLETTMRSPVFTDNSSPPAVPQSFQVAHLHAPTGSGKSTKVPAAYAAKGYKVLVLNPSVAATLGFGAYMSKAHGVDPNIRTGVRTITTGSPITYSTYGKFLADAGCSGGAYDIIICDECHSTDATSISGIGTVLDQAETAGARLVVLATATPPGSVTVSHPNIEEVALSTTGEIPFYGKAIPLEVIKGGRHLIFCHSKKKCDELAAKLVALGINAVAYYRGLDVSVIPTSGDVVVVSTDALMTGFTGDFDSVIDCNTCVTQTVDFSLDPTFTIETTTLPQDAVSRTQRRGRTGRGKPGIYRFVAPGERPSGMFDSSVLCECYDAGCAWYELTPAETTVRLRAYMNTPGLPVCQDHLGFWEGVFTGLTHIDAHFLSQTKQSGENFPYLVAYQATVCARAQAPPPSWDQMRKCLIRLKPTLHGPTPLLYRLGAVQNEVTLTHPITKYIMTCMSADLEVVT
compound,measurement,setting,value
"CC(C)(C)OC(=O)N[C@H]1CCCCC/C=C\[C@@H]2C[C@@]2(C(=O)NS(=O)(=O)C2CC2)NC(=O)[C@@H]2C[C@@H](OC(=O)c3ccc(-c4ccccc4)cc3)CN2C1=O [Compound 19, 18-(4-biphenylcarbonyloxy)-14-tert-butoxycarbonylamino-4-cyclopropylsulfonylaminocarbonyl-2,15-dioxo-3,16-diazatricyclo-[14.3.0.0^4,6]-nonadec-7-ene]",pIC50,[1],> 7.00
same,pEC50,[2],> 7.00
same,melting point,,162 to 164 °C
"CC(C)(C)OC(=O)N[C@H]1CCCCC/C=C\[C@@H]2C[C@@]2(C(=O)NS(=O)(=O)C2CC2)NC(=O)[C@@H]2C[C@@H](OC(=O)c3ccc(F)cc3)CN2C1=O [Compound 29, 18-(4-fluorobenzoyloxy)-14-tert-butoxycarbonylamino-4-cyclopropylsulfonylaminocarbonyl-2,15-dioxo-3,16-diazatricyclo-[14.3.0.0^4,6]-nonadec-7-ene]",pIC50,[1],> 7.00
same,pEC50,[2],> 7.00
same,melting point,,154 to 156 °C
"CC(C)(C)OC(=O)N[C@H]1CCCCC/C=C\[C@@H]2C[C@@]2(C(=O)NS(=O)(=O)C2CC2)NC(=O)[C@@H]2C[C@@H](OC(=O)c3ccc4ccccc4c3)CN2C1=O [Compound 18, 18-(2-naphthoyloxy)-14-tert-butoxycarbonylamino-4-cyclopropylsulfonylaminocarbonyl-2,15-dioxo-3,16-diazatricyclo-[14.3.0.0^4,6]-nonadec-7-ene]",pIC50,[1],> 7.00
same,pEC50,[2],> 7.00
same,melting point,,156 to 158 °C
"CC(C)(C)OC(=O)N[C@H]1CCCCC/C=C\[C@@H]2C[C@@]2(C(=O)NS(=O)(=O)C2CC2)NC(=O)[C@@H]2C[C@@H](OC(=O)c3ccc4c(c3)OCO4)CN2C1=O [Compound 16, 18-(3,4-methylenedioxybenzoyloxy)-14-tert-butoxycarbonylamino-4-cyclopropylsulfonylaminocarbonyl-2,15-dioxo-3,16-diazatricyclo-[14.3.0.0^4,6]-nonadec-7-ene]",pIC50,[1],> 7.00
same,pEC50,[2],> 7.00
same,melting point,,153 to 155 °C
"CC(C)(C)OC(=O)N[C@H]1COCCC/C=C\[C@@H]2C[C@@]2(C(=O)NS(=O)(=O)C2CC2)NC(=O)[C@@H]2C[C@@H](OC(=O)N3CCc4ccccc43)CN2C1=O [Compound 45, 18-(indolinecarbonyloxy)-14-tert-butoxycarbonylamino-4-cyclopropylsulfonylaminocarbonyl-2,15-dioxo-3,16-diaza-12-oxatricyclo-[14.3.0.0^4,6]-nonadec-7-ene]",pIC50,[1],> 7.00
same,pEC50,[2],6.00 to 7.00
same,melting point,,128 to 130 °C
CCOC(=O)c1ccccc1NC(=O)N[C@H]1CCCCC/C=C\[C@@H]2C[C@@]2(C(=O)NS(=O)(=O)C2CC2)NC(=O)[C@@H]2C[C@@H](OC(=O)Nc3ccccc3C(=O)OCC)CN2C1=O [Compound 44],pIC50,[1],> 7.00
same,pEC50,[2],6.00 to 7.00
same,melting point,,142 to 144 °C
"CC(C)(C)OC(=O)N[C@H]1CCCCC/C=C\[C@@H]2C[C@@]2(C(=O)NS(=O)(=O)C2CC2)NC(=O)[C@@H]2C[C@@H](OC(=O)c3ccc4c(c3)OCCO4)CN2C1=O [Compound 25, 18-(2,3-dihydro-1,4-benzodioxine-6-carbonyloxy)-14-tert-butoxycarbonylamino-4-cyclopropylsulfonylaminocarbonyl-2,15-dioxo-3,16-diazatricyclo-[14.3.0.0^4,6]-nonadec-7-ene]",pIC50,[1],> 7.00
same,pEC50,[2],> 7.00
same,melting point,,199 to 201 °C
"Cc1cc(C(=O)O[C@@H]2C[C@H]3C(=O)N[C@]4(C(=O)NS(=O)(=O)C5CC5)C[C@H]4/C=C\CCCCC[C@H](NC(=O)OC(C)(C)C)C(=O)N3C2)no1 [Compound 34, 18-(5-methylisoxazole-3-carbonyloxy)-14-tert-butoxycarbonylamino-4-cyclopropylsulfonylaminocarbonyl-2,15-dioxo-3,16-diazatricyclo-[14.3.0.0^4,6]-nonadec-7-ene]",pIC50,[1],> 7.00
same,pEC50,[2],< 6.00
same,melting point,,157 to 159 °C
"CC(C)(C)OC(=O)N[C@H]1CCCCC/C=C\[C@@H]2C[C@@]2(C(=O)NS(=O)(=O)C2CC2)NC(=O)[C@@H]2C[C@@H](OC(=O)c3ccc(Cl)cc3)CN2C1=O [Compound 21, 18-(4-chlorobenzoyloxy)-14-tert-butoxycarbonylamino-4-cyclopropylsulfonylaminocarbonyl-2,15-dioxo-3,16-diazatricyclo-[14.3.0.0^4,6]-nonadec-7-ene]",pIC50,[1],> 7.00
same,pEC50,[2],> 7.00
same,melting point,,143 to 145 °C
COC(=O)c1ccc(C(=O)O[C@@H]2C[C@H]3C(=O)N[C@]4(C(=O)NS(=O)(=O)C5CC5)C[C@H]4/C=C\CCCCC[C@H](NC(=O)OC(C)(C)C)C(=O)N3C2)cc1 [Compound 31],pIC50,[1],> 7.00
same,pEC50,[2],> 7.00
same,melting point,,154 to 156 °C
